According to patent US9890126B2 (priority 2012, dated 2018):
Like-named read-outs stand apart in the source and are kept apart here. Marks after values point to notes of the source that are not given here.

Legend:
B. pseudomallei = assay type: cell-based, Burkholderia pseudomallei; conditions: for concentration effects on growth of B. pseudomallei over time: 1 mM to 31.25 μM, FIGS. 3-10, strains 1026b and 340
Burkholderia [1] = conditions: relative to DMSO control; 0.00 = growth with inhibitor equal to or greater than DMSO control
Burkholderia [2] = test: microbe, parasite or virus in culture; conditions: read-out: inhibition against Burkholderia
IspF = IspF (Burkholderia pseudomallei, UniProt Q3JRA0); test: biochemical; assay type: binding
IspF, sequence (Q3JRA0 whole entry, looked up): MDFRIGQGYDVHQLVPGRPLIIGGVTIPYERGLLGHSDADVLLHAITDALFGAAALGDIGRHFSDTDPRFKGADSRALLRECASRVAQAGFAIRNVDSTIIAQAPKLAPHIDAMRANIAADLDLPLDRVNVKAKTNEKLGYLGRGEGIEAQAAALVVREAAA

Plasmodium falciparum = test: Antimalarial initial tests, three strains of drug resistant malaria; conditions: all three strains of drug resistant malaria

SMILES	% Growth Inhibition Growth Curve (Burkholderia [1])	% Growth Inhibition Endpoint (24 h) (Burkholderia [1])	Kd (IspF; pH 7.4)	further results
Oc1ccc(-n2ccnc2)cc1 [HGN-0029]	23.58 ± 0.54%	–	–	concentration effects on growth of B. pseudomallei over time (B. pseudomallei): did not inhibit the growth
O=C(O)c1cnc(NCCc2ccc(Cl)cc2Cl)nc1O [HGN-0118]	–	–	–	inhibition at 1000 µM (Burkholderia [2]): 94.5%
O=C([O-])c1cnc(NCCc2ccc(Cl)cc2)nc1[O-].[Na+].[Na+] [HGN-0028]	68.20 ± 2.12%	–	–	Kd (IspF): 305 µM; concentration effects on growth of B. pseudomallei over time (B. pseudomallei): dose dependent; growth of B. pseudomallei over time (B. pseudomallei; FIG. 2): inhibited the growth; B. pseudomallei growth inhibition at lower concentrations (B. pseudomallei; lower concentrations): did not inhibit
Oc1ccc(-c2cncn2CCc2ccc(Cl)cc2)cc1 [HGN-0051]	–	0.00^b %	–	antimalarial potency in initial tests (Plasmodium falciparum): potent
CCOC(=O)c1cnc(NCCc2ccc(Cl)cc2)[nH]c1=O [HGN-0038, Ethyl 2-((4-chlorophenethyl)amino)-6-oxo-1,6-dihydropyrimidine-5-carboxylate]	–	0.00^b %	not soluble	–
O=C([O-])c1cnc(Nc2ccc3[nH]ncc3c2)nc1[O-].[Na+].[Na+] [HGN-0046, Sodium 2-((1H-indazol-5-yl)amino)-4-oxoidopyrimidine-5-carboxylate]	–	15.12 ± 4.25%	non specific	–
O=C([O-])c1cnc(NCc2ccco2)nc1[O-].[Na+].[Na+] [HGN-0049]	–	12.25 ± 0.40%	–	antimalarial potency in initial tests (Plasmodium falciparum): submicromolar
O=C(O)c1cnc(Nc2ccc(-c3ccccc3)cc2)[nH]c1=O [HGN-0035, 2-((1,1′-biphenyl)-4-ylamino)-6-oxo-1,6-dihydropyrimidine-5-carboxylic acid]	–	91.14 ± 1.18%	not soluble	–
Oc1ccc(-c2cncn2CCc2c[nH]c3ccccc23)cc1 [HGN-0020]	1.26 ± 2.33%	–	–	Kd (IspF): 204 µM
CCOC(=O)c1cnc(Nc2cccc(-c3ccccc3)c2)[nH]c1=O [HGN-0039]	–	0.00^b %	non specific	–
Nc1ccn([C@@H]2O[C@H](CNC(=O)c3ccncc3)[C@@H](O)[C@H]2O)c(=O)n1 [HGN-0005]	0.00^b %	–	–	Kd (IspF): 176 µM
O=C([O-])c1cnc(Nc2ccc3cn[nH]c3c2)nc1[O-].[Na+].[Na+] [HGN-0045, Sodium 2-((1H-indazol-6-yl)amino)-4-oxoidopyrimidine-5-carboxylate]	–	0.00^b %	non specific	–
